Experimental data from ChEMBL document CHEMBL2169819, “Synthesis and biological evaluation of 2-amino-3-(4-chlorobenzoyl)-4-[(4-arylpiperazin-1-yl)methyl]-5-substituted-thiophenes. effect of the 5-modification on allosteric enhancer activity at the A1 adenosine receptor” (J Med Chem, 2012).

Legend:
[1] = target: T1, Adenosine receptor A1 (Homo sapiens) (UniProt P30542); assay: Allosteric enhancing activity at human adenosine A1 receptor expressed in CHO cells assessed as increase in [3H]-2-chloro-N6-cyclopentyladenosine Bmax at 10 uM after 90 mins relative to control; type: cell-based
T1 sequence (whole entry): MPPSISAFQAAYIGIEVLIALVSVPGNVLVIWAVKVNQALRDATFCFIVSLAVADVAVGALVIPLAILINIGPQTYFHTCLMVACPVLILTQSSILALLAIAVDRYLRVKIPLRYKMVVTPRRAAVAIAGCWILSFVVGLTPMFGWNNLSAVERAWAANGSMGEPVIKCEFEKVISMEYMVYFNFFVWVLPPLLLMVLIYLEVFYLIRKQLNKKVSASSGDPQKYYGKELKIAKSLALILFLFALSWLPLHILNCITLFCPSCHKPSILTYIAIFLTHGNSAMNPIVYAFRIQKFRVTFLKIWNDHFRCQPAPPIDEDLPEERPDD

[2] = target: T1, Adenosine receptor A1 (Homo sapiens); assay: Allosteric enhancing activity at human adenosine A1 receptor expressed in CHO cells assessed as inhibition of forskolin-stimulated cAMP accumulation at 100 nM incubated for 10 mins prior to forskolin-stimulation measured after 5 mins by competition protein binding assay in presence of 2-chloro-N6-cyclopentyladenosine; type: functional, cell-based
[3] = target: T1, Adenosine receptor A1 (Homo sapiens); assay: Allosteric enhancing activity at human adenosine A1 receptor expressed in CHO cells assessed as increase in CCPA-induced [3H]DPCPX displacement at 10 uM after 90 mins relative to control; type: cell-based
[4] = target: T1, Adenosine receptor A1 (Homo sapiens); assay: Displacement of [3H]DPCPX from human adenosine A1 receptor expressed in CHO cells at 10 uM after 120 mins by scintillation counting; type: cell-based
[5] = target: Adenosine receptor A2a (Homo sapiens) (UniProt P29274); assay: Displacement of [3H]ZM241385 from human adenosine A2A receptor expressed in CHO cells at 10 uM after 120 mins by scintillation counting; type: cell-based
[6] = target: T1, Adenosine receptor A1 (Homo sapiens); assay: Allosteric enhancing activity at human adenosine A1 receptor expressed in CHO cells assessed as inhibition of forskolin-stimulated cAMP accumulation at 10 uM incubated for 10 mins prior to forskolin-stimulation measured after 5 mins by competition protein binding assay; type: functional, cell-based
[7] = target: T2, Adenosine receptor A3 (Homo sapiens) (UniProt P0DMS8); assay: Displacement of [3H]MRE-3008-F20 from human adenosine A3 receptor expressed in CHO cells at 10 uM after 120 mins by scintillation counting; type: cell-based
T2 sequence (whole entry): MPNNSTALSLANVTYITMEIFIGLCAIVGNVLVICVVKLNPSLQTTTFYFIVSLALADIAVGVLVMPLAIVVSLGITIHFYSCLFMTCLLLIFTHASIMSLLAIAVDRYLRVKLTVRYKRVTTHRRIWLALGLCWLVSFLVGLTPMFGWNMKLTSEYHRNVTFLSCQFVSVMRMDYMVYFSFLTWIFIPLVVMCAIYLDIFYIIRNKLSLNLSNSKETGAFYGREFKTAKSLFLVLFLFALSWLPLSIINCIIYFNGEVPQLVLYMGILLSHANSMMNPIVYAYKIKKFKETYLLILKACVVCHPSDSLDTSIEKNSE

Adenosine receptor A2a (Homo sapiens), sequence (P29274 whole entry): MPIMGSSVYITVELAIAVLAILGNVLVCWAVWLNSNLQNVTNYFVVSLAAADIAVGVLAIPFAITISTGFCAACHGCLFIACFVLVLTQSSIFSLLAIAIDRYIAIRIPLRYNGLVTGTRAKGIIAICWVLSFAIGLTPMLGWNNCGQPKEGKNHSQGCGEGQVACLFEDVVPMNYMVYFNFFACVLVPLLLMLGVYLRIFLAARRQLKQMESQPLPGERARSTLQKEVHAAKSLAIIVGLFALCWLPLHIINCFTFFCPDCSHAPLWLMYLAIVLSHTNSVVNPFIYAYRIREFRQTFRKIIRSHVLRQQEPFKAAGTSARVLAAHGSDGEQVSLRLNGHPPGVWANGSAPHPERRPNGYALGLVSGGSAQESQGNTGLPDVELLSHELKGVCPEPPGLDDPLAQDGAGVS

fold change (FC) [1]	inhibition [2] [%]	Ratio Ki [3]	inhibition [4] [%]	inhibition [5] [%]	inhibition [6] [%]	inhibition [7] [%]	SMILES
4.7	40	4.2	< 12	< 12	44	< 12	Cc1sc(N)c(C(=O)c2ccc(Cl)cc2)c1CN1CCN(c2ccc(Cl)cc2)CC1
14.1	81	13.3	< 12	< 12	89	< 12	Nc1sc(-c2ccc(F)cc2)c(CN2CCN(c3ccccc3)CC2)c1C(=O)c1ccc(Cl)cc1
9.5	68	8.3	< 12	< 12	71	< 12	Nc1sc(-c2ccc(Cl)cc2)c(CN2CCN(c3ccc(F)cc3)CC2)c1C(=O)c1ccc(Cl)cc1
10.2	72	9.5	< 12	< 12	75	< 12	Nc1sc(-c2ccc(Cl)cc2)c(CN2CCN(c3ccccc3)CC2)c1C(=O)c1ccc(Cl)cc1
5.4	45	4.8	< 12	< 12	54	< 12	Cc1sc(N)c(C(=O)c2ccc(Cl)cc2)c1CN1CCN(c2ccc(I)cc2)CC1
8.5	65	7.9	< 12	< 12	64	< 12	Nc1sc(-c2ccccc2)c(CN2CCN(c3ccc(Cl)c(C(F)(F)F)c3)CC2)c1C(=O)c1ccc(Cl)cc1
6.8	56	3	< 12	< 12	55	< 12	Nc1sc(-c2ccccc2)c(CN2CCN(c3ccc(Cl)c(Cl)c3)CC2)c1C(=O)c1ccc(Cl)cc1
11.5	74	8.3	< 12	< 12	79	< 12	Nc1sc(-c2ccccc2)c(CN2CCN(c3ccccc3)CC2)c1C(=O)c1ccc(Cl)cc1
11.8	78	13	< 12	< 12	81	< 12	Nc1sc(-c2ccc(Cl)cc2)c(CN2CCN(c3cccc(C(F)(F)F)c3)CC2)c1C(=O)c1ccc(Cl)cc1
6.7	55	3.8	< 12	< 12	63	< 12	CCc1sc(N)c(C(=O)c2ccc(Cl)cc2)c1CN1CCN(c2ccc(F)cc2)CC1
6.8	57	6.4	< 12	< 12	59	< 12	Cc1sc(N)c(C(=O)c2ccc(Cl)cc2)c1CN1CCN(c2ccccc2)CC1
4.7	43	4.5	< 12	< 12	48	< 12	Nc1sc(Br)c(CN2CCN(c3ccccc3)CC2)c1C(=O)c1ccc(Cl)cc1
11.1	71	9.4	< 12	< 12	77	< 12	Nc1sc(-c2ccccc2)c(CN2CCN(c3ccc(F)cc3)CC2)c1C(=O)c1ccc(Cl)cc1
4.4	41	4.1	< 12	< 12	46	< 12	Nc1sc(Br)c(CN2CCN(c3ccc(F)cc3)CC2)c1C(=O)c1ccc(Cl)cc1
